Test results: patent US20110021477A1, “COMBINATIONS COMPRISING […] AGENTS AND CORTICOSTERIODS” (priority 2004, published 2011)

Tested on: ovoalbumin-sensitized guinea-pig isolated tracheal rings
Test: Inhibition of antigen (ovoalbumin)-induced contraction in ovoalbumin-sensitized guinea-pig isolated tracheal rings (organ bath)
Description: Male Dunkin-Hartley guinea-pigs (weighing 380-420 g) from Harlan Ibérica (St. Feliu de Codines, Spain) are used. They are housed, with free access to food and water, in rooms kept at 22±2° C. under a 12 hours light-dark cycle until the start of the experiment.
The animals are sensitised by means of two sessions of aerosolization with a solution of 5 mg/ml of ovoalbumin on days zero and 7 of the study. The aerosolization procedure consists of two 30-s nebulisations (Efbe air brush apparatus) with an interval of 5 minutes with animals maintained in a plexiglass box for 10 minutes since the beginning of the procedure.
Between days 14 to 20 from the beginning of the experiment the animals are euthanised and the tracheal tissue is removed. A single tracheal ring is excised and suspended in an organ bath containing Krebs solution. Once attached to a force isometric transducer, it is submitted to a basal resting tension of 1 g, equilibrated with a mixture a 5% CO2 in O2 and maintained at 37° C.
The preparations are allowed to equilibrate for a period of not less than 60 minutes and then the vehicle or the compound(s) to be tested are added to the bath. […] At this moment ovoalbumin is added (at a final concentration in the bath of 10 μg/ml) to elicit the contractile response which is measured immediately.
The contractile responses measured with a force isometric transducer are expressed in mg.

Question: Which results are given for `C[C@H]1C[C@H]2[C@@H]3CCC4=CC(=O)C=C[C@]4(C)[C@@]3(Cl)[C@@H](O)C[C@]2(C)[C@@]1(O)C(=O)CO` [BECLOMETHASONE, beclomethasone]?
Answer: % INHIBITION OF THE CONTRACTILE RESPONSE (each compound 10 μM in bath, ovoalbumin 10 μg/ml, relative to vehicle): 12%; inhibition of the contractile response to antigen, comparison in words (ovoalbumin-sensitized guinea-pig tracheal rings, summary of Table 1 and FIG. 1): smaller effect
